Assay results as given in patent publication US20170314056A1, “METHOD OF USING NEAR INFRARED FLUORESCENT DYES FOR IMAGING AND TARGETING CANCERS” (priority 2010, published 2017).
Entries after “also recorded” stand apart in the source; their conditions may differ. Like-named read-outs stand apart in the source and are kept apart here.

How the values were obtained:
ARCaPM cells [1] = assay: Live-cell kinetics of dye uptake in prostate cancer cells; type: cell-based, human; conditions: for uptake of dye in ARCaPM cells compared with normal P69 cells: 20 μM dye, live-cell spinning disc confocal
Protocol: ARCaPM Cells were plated on live-cell imaging chambers from World Precision Instrument (Sarasota, Fla.) overnight. Cells were treated with IR-780 with different concentrations and were imaged using a Perkin-Elmer Ultraview ERS spinning discconfocal microscope. This system was mounted on a Zeiss Axiovert 200m inverted microscope equipped with a 37° C. stage warmer, incubator, and CO2 perfusion. A x63 or x100 Zeiss oil objective (numerical aperture, 1.4) was used for all images and a Z-stack was created using the attached piezo electric z-stepper motor. The 633 nm laser line of an argon ion laser (set at 60% power) was used to excite the IR-780 organic dye. For each comparison, the exposure time and laser intensity was kept identical for accurate intensity measurement. Pixel intensity was quantitated using Metamorph 6.1 (Universal Imaging, Downingtown, Pa.) and the mean pixel intensity was generated as grey level using the Region Statistics feature on the software.
(§1) Cells were plated on live-cell imaging chambers (World Precision Instrument, Sarasota, Fla.) overnight. Cells were exposed to cyanine dyes at different concentrations and dye uptake was evaluated by a Perkin-Elmer Ultraview ERS spinning disc confocal microscope. This system was mounted on a Zeiss Axiovert 200m inverted microscope equipped with a 37° C. stage warmer, incubator, and constant CO2 perfusion. A 63× or 100× Zeiss oil objective (numerical aperture, 1.4) was used for live cell images and a Z-stack was created using the attached piezoelectric z-stepper motor. The 633 nm laser line of an argon ion laser (set at 60% power) was used to excite the cyanine dyes. […] For comparative studies, the exposure time and laser intensity were kept identical for accurate intensity measurements. Pixel intensity was quantified using Metamorph 6.1 (Universal Imaging, Downingtown, Pa.) and the mean pixel intensity was generated as grey level using the Region Statistics feature on the software (23). To determine the dye uptake by the mitochondria, the mitochondrial tracking dye Mito Tracker Orange CMTMROS (Molecular Probes, Carlsbad, Calif.) was used. To determine the dye localization in lysosomes, a lysosome tracking dye, Lyso Tracker Green DND-26 (Molecular Probes, Carlsbad, Calif.), was selected. Imaging of mitochondrial and/or lysosome localization of the cyanine dye was conducted under confocal microscopy (24).
To determine if the cyanine dye uptake and accumulation in cancer cells was dependent upon OATPs, cells were preincubated with 250 μM bromosulfophthalein (BSP), a competitive inhibitor of organic anion transporting peptides (OATPs) (25), for 5 minutes prior to incubating the cells with cyanine dyes. The uptake and accumulation of cyanine dyes in the presence and absence of BSP were conducted in the stage warmer incubator for a period of 35 minutes. The levels of cyanine dye taken up and accumulated in normal prostate (P69) and prostate cancer (ARCaPM) cells were determined and compared on a real-time basis.

ARCaPM cells [2] = assay: Subcellular co-localization with mitochondria and lysosome tracking dyes; type: cell-based, human; conditions: Mito Tracker and Lyso Tracker co-staining
Protocol: as §1, with “Imaging of mitochondrial and/or lysosome localization of the cyanine dye was conducted under confocal microscopy (24).” left out

human tumor xenografts = assay: NIR imaging of human tumor xenografts in live mice; conditions: for tumor imaging of subcutaneous xenografts: Kodak multimodal-imaging system; for dye uptake and signal in human xenograft implants at various sites: subcutaneous, orthotopic or intraosseous tumors, i.p. or i.v. dye; for duration of dye uptake and retention in tumors after dye administration: tumors in live mice
Text: […] After variable time of the dye injection, the mice were anesthetized and imaged by using the Kodak animal in vivo imaging system, which can obtain both the NIR signal and the X-ray picture and these images were merged. […] IR-783 uptake into metastatic human prostate tumors was studied in ARCaP model.
Uptake and accumulation of cyanine dyes in tumors in live mice Human cancer cells were implanted (1×10^6) either subcutaneously, orthotopically, or intraosseously into 4 to 6 week old athymic nude mice (National Cancer Institute, Frederick, Md.) according to our previously published procedures (26, 27). All animal studies were conducted under the Emory University Animal Care and Use Committee guidelines. […] Whole body optical imaging was taken at 24 h using a Kodak Imaging Station 4000 MM (New Haven, Conn.) equipped with fluorescent filter sets (excitation/emission, 800/850 nm). The field of view (FOV) was 120 mm in diameter. The frequency rate for NIR excitation light was 2 mW/cm^2. The camera settings included maximal gain, 2×2 binning, 1024×1024 pixel resolution, and an exposure time of 5 sec. In some instances, live mice were also imaged by an Olympus OV100 Whole Mouse Imaging System (excitation 762 nm; emission 800 nm) (Olympus Corp., Tokyo, Japan), containing a MT-20 light source (Olympus Biosystems, Planegg, Germany) and DP70 CCD camera (Olympus). Prior to imaging, mice were anesthetized with ketamine (75 mg/kg). During imaging, mice were maintained in an anesthetized state.
Human renal cancer cells (ACHN and SN12C) were implanted (1×10^6) subcutaneously and intraosseously into 4 to 6 week old athymic nude mice, respectively. And, we also implanted Caki-1 cells into the renal capsule of athymic nude mice to establish subrenal capsule xenografts of renal cancer as previously described.^70 When tumor sizes reached between 1-6 mm in diameter, as assessed by X-ray or by palpation, mice were […] Whole body optical imaging was taken at 24 h using a Kodak Imaging Station Imaging System 4000 MM (New Haven, Conn.) equipped with fluorescent filter sets (excitation/emission, 800/850 nm). The field of view (FOV) was 120 mm in diameter. The frequency rate for NIR excitation light was 2 mW/cm^2. The camera settings included maximal gain, 2×2 binning, 1024×1024 pixel resolution, and an exposure time of 5 sec. After whole body NIR imaging, the dissected organs and tumors were subjected to ex vivo imaging. Prior to imaging, mice were anesthetized with ketamine (75 mg/kg). During imaging, mice were maintained in an anesthetized state.

[3] = for body weight: daily intraperitoneal injection, Balb/c mice
Protocol: In control mice, the same volume of PBS was injected. The body weight and lethality of these mice were closely followed for 28 days.

[4] = mice bearing subcutaneous ACHN tumors

2-[2-[2-Chloro-3-[2-[1,3-dihydro-3,3-dimethyl-1-(4-sulfobutyl)-2H-indol-2-ylidene]-ethylidene]-1-cyclohexen-1-yl]-ethenyl]-3,3-dimethyl-1-(4-sulfobutyl)-3H-indolium [IR-783]
uptake of dye in ARCaPM cells compared with normal P69 cells (ARCaPM cells [1]): significant uptake | early phase of uptake and retention completed (ARCaPM cells [1]; ARCaP cells): 12 min | late phase of uptake and retention completed (ARCaPM cells [1]; ARCaP cells): 30 min | subcellular localization of the dye (ARCaPM cells [2]): condense on mitochondrial and lysosomal organelles; also recorded: a large portion of the IR-783 was co-localized with these subcellular organelles | tumor imaging of subcutaneous xenografts (human tumor xenografts; 5 nmol dye through tail vein): clear tumor images can be detected | time after dye at which optimal images of tumors and metastases are obtained (human tumor xenografts; metastatic prostate tumors (ARCaP orthotopic) in mice): 24 to 48 h | signal in tumor specimens, ex vivo analysis (human tumor xenografts; [4]): higher signals in tumor specimens | signals in other normal organs, ex vivo analysis (human tumor xenografts; [4]): very low signals | dye uptake by orthotopic ARCaPM tumors (human tumor xenografts; orthotopic ARCaPM (ARCaP) tumors in mice): strong uptake; also recorded: active uptake; also recorded: dye uptake and retention seen in an ARCaPM orthotopic tumor | tumor signal in whole-body NIR imaging (human tumor xenografts; subcutaneous renal tumors (ACHN), Kodak System): signals could be clearly visualized in the tumors | dye uptake and signal in human xenograft implants at various sites (human tumor xenografts): found in a broad spectrum of human xenograft implants; also recorded: intense signals were clearly associated with the tumors; also recorded: both tumors were detected | signal at anatomical sites of implanted tumors (human tumor xenografts; subrenal capsule (Caki-1) and intraosseous (SN12C) renal tumor xenografts): strong signals | duration of dye uptake and retention in tumors after dye administration (human tumor xenografts): up to 15 days | size of tumors that can be imaged (human tumor xenografts; tumors in mice): approximately 1 mm^3 | tumor weight that can be imaged (human tumor xenografts; tumors in mice): approximately 1 mg | body weight ([3]; 0 day, 1X imaging dose): 20.29 g | body weight ([3]; 0 day, 10X imaging dose): 20.57 g | body weight ([3]; 0 day, 100X imaging dose): 19.85 g | lethality in treated mice ([3]; 100× imaging dose, 28 days): no lethality | body weight ([3]; 1 day, 1X imaging dose): 20.20 g | body weight ([3]; 1 day, 10X imaging dose): 20.61 g | body weight ([3]; 1 day, 100X imaging dose): 19.74 g | body weight ([3]; 2 day, 1X imaging dose): 20.23 g | body weight ([3]; 2 day, 10X imaging dose): 20.59 g | body weight ([3]; 2 day, 100X imaging dose): 20.01 g | body weight ([3]; 3 day, 1X imaging dose): 20.32 g | body weight ([3]; 3 day, 10X imaging dose): 20.98 g | body weight ([3]; 3 day, 100X imaging dose): 20.39 g | body weight ([3]; 4 day, 1X imaging dose): 20.34 g | body weight ([3]; 4 day, 10X imaging dose): 21.02 g | body weight ([3]; 4 day, 100X imaging dose): 20.43 g | body weight ([3]; 5 day, 1X imaging dose): 21.00 g | body weight ([3]; 5 day, 10X imaging dose): 21.34 g | body weight ([3]; 5 day, 100X imaging dose): 21.01 g | body weight ([3]; 6 day, 1X imaging dose): 21.87 g | body weight ([3]; 6 day, 10X imaging dose): 21.76 g | body weight ([3]; 6 day, 100X imaging dose): 21.23 g | body weight ([3]; 7 day, 1X imaging dose): 22.32 g | body weight ([3]; 7 day, 10X imaging dose): 22.54 g | body weight ([3]; 7 day, 100X imaging dose): 22.00 g | body weight ([3]; 14 day, 1X imaging dose): 23.91 g | body weight ([3]; 14 day, 10X imaging dose): 24.01 g | body weight ([3]; 14 day, 100X imaging dose): 23.76 g | body weight ([3]; 28 day, 1X imaging dose): 24.86 g | body weight ([3]; 28 day, 10X imaging dose): 24.87 g | body weight ([3]; 28 day, 100X imaging dose): 24.61 g

CCCN1C(=CC=C2CCCC(C=CC3=[N+](CCC)c4ccccc4C3(C)C)=C2Cl)C(C)(C)c2ccccc21.[I-] [IR-780, 2-[2-[2-Chloro-3-[(1,3-dihydro-3,3-dimethyl-1-propyl-2H-indol-2-ylidene)ethylidene]-1-cyclohexen-1-yl]ethenyl]-3,3-dimethyl-1-propylindolium iodide]
uptake of dye in ARCaPM cells compared with normal P69 cells (ARCaPM cells [1]): big difference in IR-780 uptake by cancer cells and normal cells | dye concentration needed to measure uptake into cancer cells in culture (ARCaPM cells [1]; time course and concentration dependence): 20 to 50 µM | subcellular localization of the dye (ARCaPM cells [2]): co-localized with both mitochondria and lysosomes; also recorded: Co-localization of IR-780 and mitochondrial and lysosome were shown | tumor imaging of intratibial ARCaPM tumors (human tumor xenografts; 5 nmol dye through tail vein): clear tumor images can be detected | tumor imaging of subcutaneous xenografts (human tumor xenografts; 5 nmol dye through tail vein): clear tumor images can be detected in all subcutaneous tumors | dye uptake and signal in human xenograft implants at various sites (human tumor xenografts): found in a broad spectrum of human xenograft implants | duration of dye uptake and retention in tumors after dye administration (human tumor xenografts): ≤ 15 days | body weight ([3]; 0 day, 1X imaging dose): 19.00 g | body weight ([3]; 0 day, 10X imaging dose): 20.71 g | body weight ([3]; 0 day, 100X imaging dose): 20.14 g | day after injection at which all mice were killed ([3]; 100× excess of the imaging dose): 2 days | body weight ([3]; 1 day, 1X imaging dose): 19.02 g | body weight ([3]; 1 day, 10X imaging dose): 20.69 g | body weight ([3]; 1 day, 100X imaging dose): 0 g | body weight ([3]; 2 day, 1X imaging dose): 19.71 g | body weight ([3]; 2 day, 10X imaging dose): 20.70 g | body weight ([3]; 2 day, 100X imaging dose): 0 g | body weight ([3]; 3 day, 1X imaging dose): 20.01 g | body weight ([3]; 3 day, 10X imaging dose): 21.03 g | body weight ([3]; 3 day, 100X imaging dose): 0 g | body weight ([3]; 4 day, 1X imaging dose): 20.32 g | body weight ([3]; 4 day, 10X imaging dose): 21.24 g | body weight ([3]; 4 day, 100X imaging dose): 0 g | body weight ([3]; 5 day, 1X imaging dose): 20.56 g | body weight ([3]; 5 day, 10X imaging dose): 21.89 g | body weight ([3]; 5 day, 100X imaging dose): 0 g | body weight ([3]; 6 day, 1X imaging dose): 20.97 g | body weight ([3]; 6 day, 10X imaging dose): 22.00 g | body weight ([3]; 6 day, 100X imaging dose): 0 g | body weight ([3]; 7 day, 1X imaging dose): 21.81 g | body weight ([3]; 7 day, 10X imaging dose): 22.56 g | body weight ([3]; 7 day, 100X imaging dose): 0 g | body weight ([3]; 14 day, 1X imaging dose): 23.56 g | body weight ([3]; 14 day, 10X imaging dose): 24.00 g | body weight ([3]; 14 day, 100X imaging dose): 0 g | body weight ([3]; 28 day, 1X imaging dose): 24.44 g | body weight ([3]; 28 day, 10X imaging dose): 24.56 g | body weight ([3]; 28 day, 100X imaging dose): 0 g
